Experiments:
N-domain (ACE) = settings: read-out: Ki, N-domain, ref [20],[21]; cited from earlier work
C-domain of ACE = settings: ref [20],[21], cited from earlier work
Truncated C-domain ACE = experiment: fluorimetric ACE activity assay, truncated C-domain; assay type: biochemical; settings: at micromolar concentrations under identical assay conditions
Truncated C-domain ACE, sequence (P12821 643-1222 limits assumed): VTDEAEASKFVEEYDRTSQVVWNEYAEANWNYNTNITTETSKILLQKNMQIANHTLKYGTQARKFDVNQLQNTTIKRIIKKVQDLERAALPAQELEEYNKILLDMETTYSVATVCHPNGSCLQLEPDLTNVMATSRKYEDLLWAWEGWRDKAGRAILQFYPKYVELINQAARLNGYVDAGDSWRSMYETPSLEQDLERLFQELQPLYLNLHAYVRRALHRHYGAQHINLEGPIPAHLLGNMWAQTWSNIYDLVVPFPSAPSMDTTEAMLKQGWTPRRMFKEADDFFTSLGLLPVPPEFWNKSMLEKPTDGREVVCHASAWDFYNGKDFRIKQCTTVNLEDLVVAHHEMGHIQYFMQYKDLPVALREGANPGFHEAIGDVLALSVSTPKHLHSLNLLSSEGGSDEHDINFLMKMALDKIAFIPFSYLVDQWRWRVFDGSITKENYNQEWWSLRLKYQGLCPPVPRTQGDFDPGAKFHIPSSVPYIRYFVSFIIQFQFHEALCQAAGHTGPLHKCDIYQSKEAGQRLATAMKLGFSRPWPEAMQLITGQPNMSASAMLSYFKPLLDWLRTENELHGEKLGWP

Question: For “(2-(((R)-1-(((Benzyloxy)carbonyl)amino)-2-phenylethyl)(hydroxy)phosphoryl)cyclopentane-1-carbonyl)-L-tryptophan [RXPA380]”, which Ki (N-domain (ACE)) is on record?
Answer: 10 µM

Question: And the “potency and selectivity for C-domain of ACE (in words)” value (C-domain of ACE; C-domain versus N-domain)?
Answer: the most potent and selective C domain of ACE

Question: What about the Ki (C-domain of ACE; read-out: Ki, C-domain, ACE C-domain) of the same substance?
Answer: 0.003 µM

Question: What about the “Inhibition of C-domain by parent (in words)” value (Truncated C-domain ACE) of the same substance?
Answer: completely inhibits the C-domain at micromolar concentrations

— paper PMC9535653 (ACS Omega, 2022)
